Experimental data from patent US20190388441A1, “NOVEL PRODRUGS OF MIZORIBINE” (KATHOLIEKE UNIVERSITEIT LEUVEN, priority 2017, published 2019).
Where two headings read alike, the source gives them in different places.

Key:
IL-2 production = assay: suppression of IL-2 production in anti-CD3 antibody stimulated mice in vivo; set-up: species or system Balb/c mice; conditions: Mus musculus; for inhibition at 55 mg/kg: 55 mpk PO; for inhibition at 40 mg/kg: 40 mpk PO; for inhibition at 25 mg/kg: 25 mpk PO; for inhibition at 50 mg/kg: 50 mpk PO; for inhibition at 65 mg/kg: 65 mpk PO
Description: Mizoribine prodrug-induced suppression of IL-2 production in anti-CD3 antibody stimulated mice in vivo.
Inbreed Balb/c mice, male, 8-10 week old, were pre-treated with Mycophenolate mofetil (MMF), Mizoribine and Mizoribine prodrugs at the different time intervals before anti-mouse CD3 antibody injection IP (1 μg per mouse). The doses of the prodrugs of examples 19, 40 and 48 were equal to Mizoribine on the bases of molecular weight. Four hours after anti-CD3 antibody stimulation, a volume of 100 μl peripheral blood was taken by eye puncture and serum IL-2 was quantified by FACS-beads technology. Briefly, an aliquot of 10 μl of serum was incubated with anti-mouse IL-2 antibody coated microbeads at 4° C. for 30 min. After washing twice with cold PBS, the beads were incubated with biotin-conjugated anti-mouse IL-2 antibody at 4° C. for 30 min. After washing twice with cold PBS, The beads were incubated with PE-conjugated avidin at 4° C. for 30 min. After washing twice with cold PBS, the samples were analyzed by flow cytometry. Results were expressed as mean of 2 mice in each group.

[1] = system: heart grafts from Balb/c donors in C57BL/6 recipient mice; assay: heart allograft survival in mice (heterotopic heart transplantation); format: in vivo
Description: Synergy of Mizoribine Prodrugs with FK506 to Prolong Heart Allograft Survival in Mice
Heterotopic hear transplantation was performed by placing heart grafts from Balb/c donors to the neck of C57BL/6 recipient mice using micro-suture technology, in which the aorta and pulmonary artery of the graft were connected to carotid artery and jugular vein, respectively. The function of grafts was monitored by daily inspection and palpation. Rejection was determined by cessation of graft beating and confirmed by histology.

IMPDH (E. coli) = IMPDH (E. coli) (Escherichia coli, UniProt P0ADG7); conditions: lower end of the range; cited from earlier work
Sequence of IMPDH (E. coli) (P0ADG7 whole entry): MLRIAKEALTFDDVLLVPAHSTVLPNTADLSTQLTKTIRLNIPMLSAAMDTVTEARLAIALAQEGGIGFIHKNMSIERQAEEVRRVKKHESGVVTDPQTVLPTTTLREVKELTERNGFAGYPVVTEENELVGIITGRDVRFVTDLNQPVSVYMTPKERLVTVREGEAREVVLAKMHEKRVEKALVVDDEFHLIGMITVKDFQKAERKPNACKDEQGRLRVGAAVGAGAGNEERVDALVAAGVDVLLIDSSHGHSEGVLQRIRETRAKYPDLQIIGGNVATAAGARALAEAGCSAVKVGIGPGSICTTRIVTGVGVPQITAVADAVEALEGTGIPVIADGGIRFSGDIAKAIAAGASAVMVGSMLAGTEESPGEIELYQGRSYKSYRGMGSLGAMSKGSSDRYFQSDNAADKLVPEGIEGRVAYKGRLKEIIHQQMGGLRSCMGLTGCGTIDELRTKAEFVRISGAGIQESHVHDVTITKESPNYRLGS

hlMPDH1 = hlMPDH1 (Homo sapiens, UniProt P20839); conditions: upper end of the range; cited from earlier work
Sequence of hlMPDH1 (P20839 whole entry): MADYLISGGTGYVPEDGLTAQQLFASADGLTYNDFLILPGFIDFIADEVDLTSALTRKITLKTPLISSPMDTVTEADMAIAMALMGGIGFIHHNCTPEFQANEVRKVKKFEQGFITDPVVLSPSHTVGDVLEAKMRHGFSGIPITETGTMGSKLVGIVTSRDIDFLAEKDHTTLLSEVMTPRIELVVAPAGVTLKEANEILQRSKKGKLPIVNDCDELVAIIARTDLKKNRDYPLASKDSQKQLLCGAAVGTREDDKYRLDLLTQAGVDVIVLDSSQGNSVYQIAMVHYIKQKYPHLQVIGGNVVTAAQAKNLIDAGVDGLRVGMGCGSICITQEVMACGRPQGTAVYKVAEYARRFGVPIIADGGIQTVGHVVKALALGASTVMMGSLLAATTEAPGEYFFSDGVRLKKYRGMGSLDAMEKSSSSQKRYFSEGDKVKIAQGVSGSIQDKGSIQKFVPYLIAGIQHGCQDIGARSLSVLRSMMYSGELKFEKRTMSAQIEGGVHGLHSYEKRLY

DBA-1 mice with CIA = assay: chicken collagen type II induced rheumatoid arthritis (CIA) in DBA-1 mice; format: in vivo; conditions: monotherapy at given doses, 30 day-treatment
Text: Results of example 67 showing disease score in DBA-1 mice with CIA after a 30 day-treatment with the Mizoribine prodrug of example 19 alone and in combination with MMF or Mizoribine.
Example 67: Synergy of the Prodrug of Example 19 with MMF or Mizoribine in Treatment of DBA-1 Mice with Chicken Collagen Type II Induced Rheumatoid Arthritis (CIA)

Balb/c mice = assay: subacute toxicity assay; format: in vivo; conditions: Day 0-14, n = 6
Description: Reduction of Toxicity by Combination of Ex19 and MZR Subacute Toxicity Assay
Balb/c mice were treated with MZR at 100 mpk PO or Ex19 at equal molecule dose to MZR from day 0-14.

[2] = given 1 hour before anti-CD3, mean of 2 mice, read-out: % inhibition of IL-2, 1 hour post administration
[3] = given 4 hours before anti-CD3, mean of 2 mice, read-out: % inhibition of IL-2, 4 hour post administration
[4] = given 8 hours before anti-CD3, mean of 2 mice, read-out: % inhibition of IL-2, 8 hour post administration
[5] = 1 to 8 hours post administration, read-out: inhibition of IL-2, range up to 8 hours post administration

NC(=O)c1ncn(C2OC(COC(=O)[C@@H](N)CC(=O)OCc3ccccc3)C(O)C2O)c1O (stereo partly drawn) [Ex 48, Mizoribine-5′-(4-benzyl ester-L-aspartyl) ester]
inhibition at 55 mg/kg (IL-2 production; [2]): 77%
inhibition at 55 mg/kg (IL-2 production; [3]): 32.7%
inhibition at 55 mg/kg (IL-2 production; [4]): 27.7%
inhibition at 55 mg/kg (IL-2 production; [5]): 27.7 to 77%
MST (median survival time) ± SD ([1]; 112 mpk PO, d 0 to d 14 post transplantation): 11 ± 1.0 days
MST (median survival time) ± SD ([1]; 112 mpk PO, d 0 to d 14 post transplantation, listed as example 48): 11 ± 1.0 days

NC(=O)c1ncn([C@@H]2O[C@H](COP(=O)(O)O)[C@@H](O)[C@H]2O)c1O [mizoribine-5′-monophosphate]
Ki (IMPDH (E. coli)): 0.5 nM
Ki (hlMPDH1): 8 nM

CC(C)(C)C(=O)NC(=O)c1ncn([C@@H]2O[C@H](COC(=O)C(C)(C)C)C(O)[C@H]2O)c1O (stereo partly drawn) [Ex 40, Mizoribine-5′-N-dipivalate]
inhibition at 40 mg/kg (IL-2 production; [2]): 19.4%
inhibition at 40 mg/kg (IL-2 production; [3]): 64.4%
inhibition at 40 mg/kg (IL-2 production; [4]): 61.3%
MST (median survival time) ± SD ([1]; 83 mpk PO, d 0 to d 14 post transplantation): 11 ± 0.6 days
MST (median survival time) ± SD ([1]; 83 mpk PO, d 0 to d 14 post transplantation, listed as Example 40): 11 ± 0.6 days
MST (median survival time) ± SD ([1]; 83 mpk PO, d 0 to d 14 post transplantation, listed as example 40): 11 ± 0.6 days

NC(=O)c1ncn([C@@H]2O[C@H](CO)[C@@H](O)[C@H]2O)c1O [Mizoribine]
inhibition at 25 mg/kg (IL-2 production; [2]): 55.6%
inhibition at 25 mg/kg (IL-2 production; [3]): -8.6%
inhibition at 25 mg/kg (IL-2 production; [4]): -7.3%
MST (median survival time) ± SD ([1]; MZR 50 mpk PO, d 0 to d 14): 8 ± 1.2 days
MST (median survival time) ± SD ([1]; MZR 50 mpk PO, d 0 to d 14, listed as MZR): 8 ± 1.2 days
suppression of disease score (DBA-1 mice with CIA): didn't show notable suppression of disease score

COc1c(C)c2c(c(O)c1C/C=C(\C)CCC(=O)OCCN1CCOCC1)C(=O)OC2 [MMF, Mycophenolate mofetil, reference compound]
inhibition at 50 mg/kg (IL-2 production; given 1 hour before anti-CD3, serum IL-2 4 h after stimulation, mean of 2 mice, read-out: % inhibition of IL-2, 1 hour post administration): 81.7%
inhibition at 50 mg/kg (IL-2 production; [3]): 52.3%
inhibition at 50 mg/kg (IL-2 production; [4]): 3.4%
MST (median survival time) ± SD ([1]; MMF 100 mpk PO, d 0 to d 14): 11 ± 1.2 days
suppression of disease score (DBA-1 mice with CIA): didn't show notable suppression of disease score

C=CC[C@@H]1/C=C(\C)C[C@H](C)C[C@H](OC)[C@H]2O[C@@](O)(C(=O)C(=O)N3CCCC[C@H]3C(=O)O[C@H](/C(C)=C/[C@@H]3CC[C@@H](O)[C@H](OC)C3)[C@H](C)[C@@H](O)CC1=O)[C@H](C)C[C@@H]2OC [FK506, tacrolimus]
MST (median survival time) ± SD ([1]; FK506 4 mpk IM, d 0 to d 14 post transplantation, 4 mg/kg): 8 ± 1.3 days

CC(C)CCOC(=O)C[C@H](NP(=O)(OC[C@H]1O[C@@H](n2cnc(C(N)=O)c2O)[C@H](O)C1O)Oc1ccccc1)C(=O)OCCC(C)C (stereo partly drawn) [Ex 19, Mizoribine-5′-[phenyl-bis(isoamyl-L-aspartyl)]phosphate]
inhibition at 65 mg/kg (IL-2 production; [2]): 14.7%
inhibition at 65 mg/kg (IL-2 production; [3]): 18.3%
inhibition at 65 mg/kg (IL-2 production; [4]): 17.5%
inhibition at 65 mg/kg (IL-2 production; [5]): 14 to 18%
suppression of disease score (DBA-1 mice with CIA): didn't show notable suppression of disease score
n° sick animals (Balb/c mice; Ex19 260 mg/kg PO (equal molecule dose to MZR)): 3
% sickness (Balb/c mice; Ex19 260 mg/kg PO): 50%
